Data from patent US20230101747A1 (Schrödinger, Inc., priority 2019, published 2023).

Target: T1, Full length human CDC7 protein co-expressed with DBF4 (Homo sapiens, UniProt O00311)
T1 construct: Full length human CDC7 protein co-expressed with DBF4; purchased SignalChem (China)
Assay: CDC7 kinase biochemical assay (ADP-Glo, PDKtide substrate)
Conditions: 0.1 nM CDC7/DBF4, 1 uM ATP, 10 uM PDKtide, 4 h; read-out: CDC7 ADP-Glo PDKtide IC50
Method: CDC7 Kinase Biochemical Assay Protocol:
Full length human CDC7 protein co-expressed with DBF4 was purchased from SignalChem (China). CDC7 kinase activity was determined with PDKtide (SignalChem) as a substrate and by measuring ADP production using the ADP-Glo™ Kinase Assay kit (Promega) following the manufacturers instructions. The kinase reaction was performed using the following conditions: Buffer: 40 mM Tris pH 7.5, 20 mM MgCl2, 0.1 mg/ml BSA and 50 uM DTT. Final reaction mix contained 0.1 nM CDC7/DBF4, 1 uM ATP and 10 uM PDKtide. The kinase reaction time was 4 h. The ADP-Glo signal was measured using an EnVision plate reader (PerkinELmer).
Percent inhibition of CDC7 kinase activity was calculated based on the following formula: […]
SSample: the signal of compounds SHigh ctrl: the signal of high control (DMSO) SLow Ctrl: the signal of low control (positive control CDC7 inhibitor)

T1 sequence (O00311 whole entry): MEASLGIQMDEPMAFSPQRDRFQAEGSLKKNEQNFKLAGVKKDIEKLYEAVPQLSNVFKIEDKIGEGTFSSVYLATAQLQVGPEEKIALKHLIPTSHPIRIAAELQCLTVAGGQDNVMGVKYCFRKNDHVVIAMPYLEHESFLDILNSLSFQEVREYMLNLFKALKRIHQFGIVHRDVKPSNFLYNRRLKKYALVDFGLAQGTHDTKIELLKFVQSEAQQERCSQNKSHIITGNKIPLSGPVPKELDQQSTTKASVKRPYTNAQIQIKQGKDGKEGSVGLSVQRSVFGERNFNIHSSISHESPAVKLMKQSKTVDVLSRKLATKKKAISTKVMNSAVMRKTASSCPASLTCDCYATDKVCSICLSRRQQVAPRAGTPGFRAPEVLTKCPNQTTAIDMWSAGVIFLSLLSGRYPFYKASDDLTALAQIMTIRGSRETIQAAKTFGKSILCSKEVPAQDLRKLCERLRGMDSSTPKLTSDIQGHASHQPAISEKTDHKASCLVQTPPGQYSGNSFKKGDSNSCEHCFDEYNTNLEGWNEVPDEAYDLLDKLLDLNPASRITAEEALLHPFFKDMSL
T1 sequence (Q9UBU7 whole entry partner): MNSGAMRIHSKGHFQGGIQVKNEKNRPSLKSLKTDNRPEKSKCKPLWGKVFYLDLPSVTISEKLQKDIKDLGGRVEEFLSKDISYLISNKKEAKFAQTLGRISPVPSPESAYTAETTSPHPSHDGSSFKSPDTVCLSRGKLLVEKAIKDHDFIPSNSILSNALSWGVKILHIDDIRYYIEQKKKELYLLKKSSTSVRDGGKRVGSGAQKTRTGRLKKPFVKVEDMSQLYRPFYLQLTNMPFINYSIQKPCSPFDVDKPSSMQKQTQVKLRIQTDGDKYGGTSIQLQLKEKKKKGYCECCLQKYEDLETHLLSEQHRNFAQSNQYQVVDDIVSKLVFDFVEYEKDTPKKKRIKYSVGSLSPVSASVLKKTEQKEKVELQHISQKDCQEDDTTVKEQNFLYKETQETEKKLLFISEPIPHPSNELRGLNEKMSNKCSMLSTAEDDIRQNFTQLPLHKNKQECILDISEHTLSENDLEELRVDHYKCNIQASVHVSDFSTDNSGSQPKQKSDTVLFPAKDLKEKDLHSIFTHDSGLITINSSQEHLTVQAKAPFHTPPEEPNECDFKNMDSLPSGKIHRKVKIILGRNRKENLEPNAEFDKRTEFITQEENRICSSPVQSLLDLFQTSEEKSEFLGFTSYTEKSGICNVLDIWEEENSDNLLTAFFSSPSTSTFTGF

Structure (SMILES) | IC50
CC1C(C2CCC2)NC(=O)c2sc(-c3cn[nH]c3)c3c2N1CCO3 (racemic) [Compound 96, 10-cyclobutyl-9-methyl-3-(1H-pyrazol-4-yl)-5-oxa-2-thia-8,11-diazatricyclo[6.4.1.0^4,13] trideca-1(13),3-dien-12-one] | < 1 nM
O=C1NC[C@H](C2CCOCC2)N2CCOc3c(-c4cn[nH]c4)sc1c32 (single isomer, unassigned) [Compound 28] | > 10 nM
COC[C@H]1[C@@H](C2CCC2)NC(=O)c2sc(-c3cn[nH]c3)c3c2N1CCO3 (single isomer, unassigned) [Compound 98] | 1 to 10 nM
O=C1NC(C2CCCCO2)CN2CCCc3c(-c4cn[nH]c4)sc1c32 (single isomer, unassigned) [Compound 108] | < 1 nM
O=C1NC(C2CCCCO2)CN2CCCc3c(-c4cn[nH]c4)sc1c32 (single isomer, unassigned) [Compound 110] | < 1 nM
O=C1NC(C2CC(F)(F)C2)CN2CCOc3c(-c4cn[nH]c4)sc1c32 (single isomer, unassigned) [Compound 111, (R or S)-7-(3,3-difluorocyclobutyl)-2-(1H-pyrazol-4-yl)-4,5,7,8-tetrahydro-3-oxa-1-thia-5a,8-diazabenzo[cd]azulen-9(6H)-one] | < 1 nM
O=C1NC(C2CC(F)(F)C2)CN2CCOc3c(-c4cn[nH]c4)sc1c32 (single isomer, unassigned) [Compound 112, (S or R)-7-(3,3-difluorocyclobutyl)-2-(1H-pyrazol-4-yl)-4,5,7,8-tetrahydro-3-oxa-1-thia-5a,8-diazabenzo[cd]azulen-9(6H)-one] | < 1 nM
O=C1N[C@@H]([C@@H]2CCCO2)CN2CC(F)(F)Cc3c(-c4cn[nH]c4)sc1c32 (single isomer, unassigned) [Compound 120] | < 1 nM
O=C1N[C@H](C23CCC(CC2)O3)CN2CC(F)(F)Cc3c(-c4cn[nH]c4)sc1c32 (single isomer, unassigned) [Compound 122] | > 10 nM
O=C1NC([C@H]2[C@@H]3COC[C@@H]32)CN2CC(F)(F)Cc3c(-c4cn[nH]c4)sc1c32 (single isomer, unassigned) [Compound 123] | < 1 nM
O=C1NC([C@H]2[C@@H]3COC[C@@H]32)CN2CC(F)(F)Cc3c(-c4cn[nH]c4)sc1c32 (single isomer, unassigned) [Compound 124] | < 1 nM

More lines, now with the values ahead:

IC50 | Structure (SMILES)
1 to 10 nM | COC[C@@H]1[C@H](C2CCC2)NC(=O)c2sc(-c3cn[nH]c3)c3c2N1CCO3 (single isomer, unassigned) [Compound 99]
< 1 nM | O=C1NC(C2CCCCO2)CN2CCCc3c(-c4cn[nH]c4)sc1c32 (single isomer, unassigned) [Compound 107]
> 10 nM | O=C1NC(C2CCCCO2)CN2CCCc3c(-c4cn[nH]c4)sc1c32 (single isomer, unassigned) [Compound 109]
< 1 nM | O=C1NC(C2CC(F)(F)C2)CN2CC(F)(F)Cc3c(-c4cn[nH]c4)sc1c32 (single isomer, unassigned) [Compound 113, (R or S)-7-(3,3-difluorocyclobutyl)-4,4-difluoro-2-(1H-pyrazol-4-yl)-4,5,7,8-tetrahydro-3H-1-thia-5a,8-diazabenzo[cd]azulen-9(6H)-one]
< 1 nM | O=C1NC(C2CC(F)(F)C2)CN2CC(F)(F)Cc3c(-c4cn[nH]c4)sc1c32 (single isomer, unassigned) [Compound 114, (R or S)-7-(3,3-difluorocyclobutyl)-4,4-difluoro-2-(1H-pyrazol-4-yl)-4,5,7,8-tetrahydro-3H-1-thia-5a,8-diazabenzo[cd]azulen-9(6H)-one]
< 1 nM | Cc1n[nH]cc1-c1sc2c3c1CC(F)(F)CN3C[C@H]([C@H]1CCCO1)NC2=O (single isomer, unassigned) [Compound 119]
